For 4 molecules, IC50 results are on record in BindingDB's records for doi:10.1016/j.bmcl.2005.03.008 (Abbott Laboratories, 2005).

Molecules are shown by their SMILES.

In general, IC50 refers to the point on the concentration scale where inhibition reaches its midpoint. Low readings indicate inhibition by little substance, high ones a need for much substance.

This assay addresses T1, Dimer of Gag-Pol polyprotein [489-587] (Human immunodeficiency virus 1, UniProt P12497).
T1 construct: 489-587
Description: Enzyme Inhibition Assay. Conditions: pH 4.5; 30 °C. The procedure:
HIV-1 protease inhibition was measured by a fluorescence assay using recombinant HIV-1 protease. […] The percent inhibition of enzyme activity in the presence of inhibitor was determined by comparing inhibition rates with uninhibited control reactions. All IC50 values were determined with a range of inhibitor concentrations using the relation IC50 = (100/ percent inhibition - 1) x inhibitor concentration.

In turn, `Cc1nc(CN2CCN([C@H](C(=O)N[C@@H](Cc3ccccc3)[C@H](O)CN(CC(C)C)S(=O)(=O)c3cccc(CN=O)c3)C(C)C)C2=O)cs1` [(2S)-N-[(2S,3R)-3-hydroxy-4-({3-[(1E)-(hydroxyimino)methyl]benzene}(2-methylpropyl)sulfonamido)-1-phenylbutan-2-yl]-3-methyl-2-{3-[(2-methyl-1,3-thiazol-4-yl)methyl]-2-oxoimidazolidin-1-yl}butanamide] gave an IC50 of 0.016 µM. This counts as double-digit nanomolar. In turn, `Cc1nc(CN2CCN([C@H](C(=O)N[C@@H](Cc3ccccc3)[C@H](O)CN(CC(C)C)S(=O)(=O)c3ccc(CO)cc3)C(C)C)C2=O)cs1` [(2S)-N-[(2S,3R)-3-hydroxy-4-{[4-(hydroxymethyl)benzene](2-methylpropyl)sulfonamido}-1-phenylbutan-2-yl]-3-methyl-2-{3-[(2-methyl-1,3-thiazol-4-yl)methyl]-2-oxoimidazolidin-1-yl}butanamide] came in with an IC50 of 0.016 µM.

For `CO/N=C/c1ccc(S(=O)(=O)N(CC(C)C)C[C@@H](O)[C@H](Cc2ccccc2)NC(=O)[C@H](C(C)C)N2CCN(Cc3csc(C)n3)C2=O)cc1` [(2S)-N-[(2S,3R)-3-hydroxy-4-({4-[(1E)-(methoxyimino)methyl]benzene}(2-methylpropyl)sulfonamido)-1-phenylbutan-2-yl]-3-methyl-2-{3-[(2-methyl-1,3-thiazol-4-yl)methyl]-2-oxoimidazolidin-1-yl}butanamide], the midpoint of inhibition, the IC50, lay at 0.653 µM. This IC50 lies about 41-fold higher than the previous one. The result for `Cc1nc(CN2CCN([C@H](C(=O)N[C@@H](Cc3ccccc3)[C@H](O)CN(CC(C)C)S(=O)(=O)c3ccc(CN=O)cc3)C(C)C)C2=O)cs1` [(2S)-N-[(2S,3R)-3-hydroxy-4-({4-[(1E)-(hydroxyimino)methyl]benzene}(2-methylpropyl)sulfonamido)-1-phenylbutan-2-yl]-3-methyl-2-{3-[(2-methyl-1,3-thiazol-4-yl)methyl]-2-oxoimidazolidin-1-yl}butanamide] reads 0.005 µM.
